Laboratory results taken from US6274715A, “Tricyclic erythromycin derivatives” (priority 1997, dated 2001).
Converted amounts (≈) assume the structure as drawn.

Legend:
Format in all cases: cell-based
M[…] ATCC 4698 = experiment: In vitro antibacterial activity, MIC, BHI agar dilution; conditions: M. luteus ATCC 4698, unit assumed
Method in brief: (§1)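 BHI agar dilution, 12 plates; inoculum 1:100 (1:10 slow-growing strains), Steers replicator; 35-37° C, 20-24 h. MIC = lowest conc. with no growth/slight haze/sparse colonies vs growth control, visual read. Erythromycin A reference plate.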

STR[…] 508 = experiment: as above; conditions: S. agalactiae CMX 508, unit assumed
Method in brief: as §1

M[…] ATCC 9341 = experiment: as above; conditions: M. luteus ATCC 9341, unit assumed
Method in brief: as §1

EN[…] ATCC 8043 = experiment: as above; conditions: E. faecium ATCC 8043, unit assumed
Method in brief: as §1

[1] = test system: STAPHYLOCOCCUS AUREUS CMX 553; experiment: as above; conditions: S. aureus CMX 553, unit assumed
[2] = test system: PSEUDOMONAS AERUGINOSA DPHD-5263; experiment: as above; conditions: P. aeruginosa DPHD-5263, unit assumed
ESCHERICHIA COLI DC-2 = experiment: as above; conditions: E. coli DC-2, unit assumed
[3] = test system: MYCOBACTERIUM SMEGMATIS ATCC 114; experiment: as above; conditions: M. smegmatis ATCC 114, unit assumed
[4] = test system: STREPTOCOCCUS PYOGENES 930; experiment: as above; conditions: S. pyogenes 930, unit assumed
[5] = test system: PSEUDOMONAS AERUGINOSA BMH10; experiment: as above; conditions: P. aeruginosa BMH10, unit assumed
PSEUDOMONAS CEPACIA 296I = experiment: as above; conditions: P. cepacia 296I, unit assumed
[6] = test system: STAPHYLOCOCCUS AUREUS NCTC10649M; experiment: as above; conditions: S. aureus NCTC10649M, unit assumed
[7] = test system: STREPTOCOCCUS BOVIS A-5169; experiment: as above; conditions: S. bovis A-5169, unit assumed
[8] = test system: PSEUDOMONAS AERUGINOSA DPHD-2862; experiment: as above; conditions: P. aeruginosa DPHD-2862, unit assumed
[9] = test system: STAPHYLOCOCCUS AUREUS A5177; experiment: as above; conditions: S. aureus A5177, unit assumed
[10] = test system: STAPHYLOCOCCUS EPIDERMIDIS 3519; conditions: S. epidermidis 3519; BHI agar; unit assumed
[11] = test system: KLEBSIELLA PNEUMONIAE ATCC 8045; experiment: In vitro antibacterial activity, MIC, BHI agar dilution; conditions: K. pneumoniae ATCC 8045, unit assumed
[12] = test system: STAPHYLOCOCCUS AUREUS ATCC 6538P; experiment: as above; conditions: S. aureus ATCC 6538P, 35-37° C., 20 to 24 hours, unit assumed
CANDIDA ALBICANS CCH 442 = experiment: as above; conditions: C. albicans CCH 442, unit assumed
[13] = test system: PSEUDOMONAS AERUGINOSA K799/61; experiment: as above; conditions: P. aeruginosa K799/61, unit assumed
[14] = test system: PROVIDENCIA STUARTII CMX 640; conditions: P. stuartii CMX 640; BHI agar; unit assumed
ESCHERICHIA COLI KNK 437 = conditions: E. coli KNK 437; BHI agar; unit assumed
[15] = test system: PSEUDOMONAS AERUGINOSA 5007; experiment: In vitro antibacterial activity, MIC, BHI agar dilution; conditions: P. aeruginosa 5007, unit assumed
[16] = test system: ENTEROBACTER AEROGENES ATCC 13048; experiment: as above; conditions: E. aerogenes ATCC 13048, unit assumed
[17] = test system: PSEUDOMONAS AERUGINOSA K799/WT; experiment: as above; conditions: P. aeruginosa K799/WT, unit assumed
[18] = test system: STAPHYLOCOCCUS AUREUS A-5278; experiment: as above; conditions: S. aureus A-5278, unit assumed
[19] = test system: STREPTOCOCCUS PYOGENES EES61; experiment: as above; conditions: S. pyogenes EES61, unit assumed
[20] = test system: STAPHYLOCOCCUS AUREUS 1775; experiment: as above; conditions: S. aureus 1775, unit assumed
[21] = test system: STREPTOCOCCUS PYOGENES PIU 2548; experiment: as above; conditions: S. pyogenes PIU 2548, unit assumed
ESCHERICHIA COLI H560 = experiment: as above; conditions: E. coli H560, unit assumed
ESCHERICHIA COLI JUHL = conditions: E. coli JUHL; BHI agar; unit assumed
ESCHERICHIA COLI SS = experiment: In vitro antibacterial activity, MIC, BHI agar dilution; conditions: E. coli SS, unit assumed
[22] = test system: STAPHYLOCOCCUS AUREUS CMX 642A; experiment: as above; conditions: S. aureus CMX 642A, unit assumed

SMILES | MIC (M[…] ATCC 4698) [µg/mL] | MIC (STR[…] 508) [µg/mL] | MIC (M[…] ATCC 9341) [µg/mL] | MIC (EN[…] ATCC 8043) [µg/mL] | MIC [1] [µg/mL] | MIC [2] [µg/mL] | MIC (ESCHERICHIA COLI DC-2) [µg/mL] | MIC [3] [µg/mL] | MIC [4] [µg/mL] | MIC [5] [µg/mL] | MIC (PSEUDOMONAS CEPACIA 296I) [µg/mL] | MIC [6] [µg/mL] | MIC [7] [µg/mL] | MIC [8] [µg/mL] | MIC [9] [µg/mL] | MIC [10] [µg/mL] | MIC [11] [µg/mL] | MIC [12] [µg/mL] | MIC (CANDIDA ALBICANS CCH 442) [µg/mL] | MIC [13] [µg/mL] | also measured
CC[C@H]1OC(=O)[C@H](C)C(=O)[C@H](C)[C@@H](O[C@@H]2O[C@H](C)C[C@H](N(C)C)[C@H]2O)[C@](C)(OC)C[C@@H](C)C2=NC3CN(CCc4ccc(NC(C)=O)cc4)CC3N3C(=O)O[C@@]1(C)[C@H]3[C@H]2C (stereo partly drawn) [Example 122] | 1.56 (≈ 1.86 µM) | 0.1 (≈ 0.119 µM) | 0.05 (≈ 0.0595 µM) | 0.78 (≈ 0.928 µM) | 0.78 (≈ 0.928 µM) | > 100 | 100 (≈ 119 µM) | 25 (≈ 29.8 µM) | 100 (≈ 119 µM) | > 100 | > 100 | 0.78 (≈ 0.928 µM) | 0.02 (≈ 0.0238 µM) | > 100 | 0.39 (≈ 0.464 µM) | 0.78 (≈ 0.928 µM) | > 100 | 0.39 (≈ 0.464 µM) | > 100 | 0.78 (≈ 0.928 µM) | MIC [14]: > 100 µg/mL; MIC (ESCHERICHIA COLI KNK 437): 50 µg/mL (≈ 59.5 µM); MIC [15]: > 100 µg/mL; MIC [16]: 100 µg/mL (≈ 119 µM); MIC [17]: > 100 µg/mL; MIC [18]: > 100 µg/mL; MIC [19]: 0.02 µg/mL (≈ 0.0238 µM); MIC [20]: > 100 µg/mL; MIC [21]: 6.2 µg/mL (≈ 7.38 µM); MIC (ESCHERICHIA COLI H560): 50 µg/mL (≈ 59.5 µM); MIC (ESCHERICHIA COLI JUHL): 100 µg/mL (≈ 119 µM); MIC (ESCHERICHIA COLI SS): 0.78 µg/mL (≈ 0.928 µM); MIC [22]: 0.78 µg/mL (≈ 0.928 µM)
CCC1OC(=O)C(C)C(=O)C(C)C(OC2OC(C)CC(N(C)C)C2O)C(C)(OC)CC(C)C2=NC(CN3CCCCC3)CN3C(=O)OC1(C)C3C2C (stereo not drawn) [Example 96] | 0.39 (≈ 0.531 µM) | 0.05 (≈ 0.068 µM) | 0.02 (≈ 0.0272 µM) | 0.1 (≈ 0.136 µM) | 0.39 (≈ 0.531 µM) | > 100 | 25 (≈ 34 µM) | 3.1 (≈ 4.22 µM) | > 100 | 100 (≈ 136 µM) | > 100 | 0.39 (≈ 0.531 µM) | 0.01 (≈ 0.0136 µM) | > 100 | 0.2 (≈ 0.272 µM) | 0.39 (≈ 0.531 µM) | 100 (≈ 136 µM) | 0.2 (≈ 0.272 µM) | > 100 | 0.78 (≈ 1.06 µM) | MIC [14]: > 100 µg/mL; MIC (ESCHERICHIA COLI KNK 437): 50 µg/mL (≈ 68 µM); MIC [15]: > 100 µg/mL; MIC [16]: 100 µg/mL (≈ 136 µM); MIC [17]: > 100 µg/mL; MIC [18]: > 100 µg/mL; MIC [19]: 0.02 µg/mL (≈ 0.0272 µM); MIC [20]: > 100 µg/mL; MIC [21]: 0.39 µg/mL (≈ 0.531 µM); MIC (ESCHERICHIA COLI H560): 12.5 µg/mL (≈ 17 µM); MIC (ESCHERICHIA COLI JUHL): 25 µg/mL (≈ 34 µM); MIC (ESCHERICHIA COLI SS): 0.39 µg/mL (≈ 0.531 µM); MIC [22]: 0.39 µg/mL (≈ 0.531 µM)
CC[C@H]1OC(=O)[C@H](C)C(=O)[C@H](C)[C@@H](O[C@@H]2O[C@H](C)C[C@H](N(C)C)[C@H]2O)[C@](C)(OC)C[C@@H](C)C2=NC3CCCC3N3C(=O)O[C@@]1(C)[C@H]3[C@H]2C (stereo partly drawn) [Example 107] | 0.39 (≈ 0.575 µM) | 0.02 (≈ 0.0295 µM) | 0.05 (≈ 0.0738 µM) | 0.1 (≈ 0.148 µM) | 0.78 (≈ 1.15 µM) | > 100 | > 100 | 1.56 (≈ 2.3 µM) | > 100 | > 100 | > 100 | 0.78 (≈ 1.15 µM) | 0.01 (≈ 0.0148 µM) | > 100 | 0.78 (≈ 1.15 µM) | 0.78 (≈ 1.15 µM) | > 100 | 0.78 (≈ 1.15 µM) | > 100 | 6.2 (≈ 9.15 µM) | MIC [14]: > 100 µg/mL; MIC (ESCHERICHIA COLI KNK 437): > 100 µg/mL; MIC [15]: > 100 µg/mL; MIC [16]: > 100 µg/mL; MIC [17]: > 100 µg/mL; MIC [18]: > 100 µg/mL; MIC [19]: 0.02 µg/mL (≈ 0.0295 µM); MIC [20]: > 100 µg/mL; MIC [21]: 0.39 µg/mL (≈ 0.575 µM); MIC (ESCHERICHIA COLI H560): 50 µg/mL (≈ 73.8 µM); MIC (ESCHERICHIA COLI JUHL): > 100 µg/mL; MIC (ESCHERICHIA COLI SS): 0.39 µg/mL (≈ 0.575 µM); MIC [22]: 0.78 µg/mL (≈ 1.15 µM)
